Species: Sus scrofa
Assay: Inhibition of pig aortic GlcNAc-1P-transferase-mediated […] formation at 50 to 100 ug/ml

Question: Which inhibition does the source give for `CC(=O)N[C@H]1[C@@H](O[C@@H]2O[C@H](C[C@H](O)[C@H]3O[C@@H](N4CCC(=O)NC4=O)[C@H](O)[C@@H]3O)[C@H](O)[C@H](O)[C@H]2NC(=O)/C=C/CCCCCCC(C)C)O[C@H](CO)[C@@H](O)[C@@H]1O` here?
Answer: 50%

Question: For `CCC(C)CCCCCC/C=C/C(=O)N[C@H]1[C@H](O[C@H]2O[C@H](CO)[C@@H](O)[C@H](O)[C@H]2NC(C)=O)O[C@H](C[C@H](O)[C@H]2O[C@@H](N3CCC(=O)NC3=O)[C@H](O)[C@@H]2O)[C@H](O)[C@@H]1O` (stereo not given in full), which inhibition is on record?
Answer: 50%

Question: Which inhibition does the source give for `CCC(C)CCCCCCCC/C=C/C(=O)N[C@H]1[C@H](O[C@H]2O[C@H](CO)[C@@H](O)[C@H](O)[C@H]2NC(C)=O)O[C@H](C[C@H](O)[C@H]2O[C@@H](N3CCC(=O)NC3=O)[C@H](O)[C@@H]2O)[C@H](O)[C@@H]1O` (stereo not given in full) here?
Answer: 50%

Question: For `CC(=O)N[C@H]1[C@@H](O[C@@H]2O[C@H](C[C@H](O)[C@H]3O[C@@H](N4CCC(=O)NC4=O)[C@H](O)[C@@H]3O)[C@H](O)[C@H](O)[C@H]2NC(=O)/C=C/CCCCCCCC(C)C)O[C@H](CO)[C@@H](O)[C@@H]1O`, which inhibition is on record?
Answer: 50%

Question: How did the inhibition turn out when `CC(=O)N[C@H]1[C@@H](O[C@@H]2O[C@H](C[C@H](O)[C@H]3O[C@@H](N4CCC(=O)NC4=O)[C@H](O)[C@@H]3O)[C@H](O)[C@H](O)[C@H]2NC(=O)/C=C/CCCCCCCCC(C)C)O[C@H](CO)[C@@H](O)[C@@H]1O` was run?
Answer: 50%

Species: Sus scrofa
Assay: Inhibition of pig aortic GlcNAc-1P-transferase-mediated […] formation at 0.5 to 1.5 ug/ml

Question: With `CCC(C)CCCCCC/C=C/C(=O)N[C@H]1[C@H](O[C@H]2O[C@H](CO)[C@@H](O)[C@H](O)[C@H]2NC(C)=O)O[C@H](C[C@H](O)[C@H]2O[C@@H](n3ccc(=O)[nH]c3=O)[C@H](O)[C@@H]2O)[C@H](O)[C@@H]1O` (stereo not given in full) as the compound, how does the inhibition read?
Answer: 50%

Question: `CC(=O)N[C@H]1[C@@H](O[C@@H]2O[C@H](C[C@H](O)[C@H]3O[C@@H](n4ccc(=O)[nH]c4=O)[C@H](O)[C@@H]3O)[C@H](O)[C@H](O)[C@H]2NC(=O)/C=C/CCCCCCCCC(C)C)O[C@H](CO)[C@@H](O)[C@@H]1O` was tested. Which inhibition did it give?
Answer: 50%

Question: For `CC(=O)N[C@H]1[C@@H](O[C@@H]2O[C@H](C[C@H](O)[C@H]3O[C@@H](n4ccc(=O)[nH]c4=O)[C@H](O)[C@@H]3O)[C@H](O)[C@H](O)[C@H]2NC(=O)/C=C/CCCCCCCC(C)C)O[C@H](CO)[C@@H](O)[C@@H]1O`, which inhibition is on record?
Answer: 50%

Question: `CCC(C)CCCCCCCC/C=C/C(=O)N[C@H]1[C@H](O[C@H]2O[C@H](CO)[C@@H](O)[C@H](O)[C@H]2NC(C)=O)O[C@H](C[C@H](O)[C@H]2O[C@@H](n3ccc(=O)[nH]c3=O)[C@H](O)[C@@H]2O)[C@H](O)[C@@H]1O` (stereo not given in full) was tested. Which inhibition did it give?
Answer: 50%

Question: Which inhibition does the source give for `CC(=O)N[C@H]1[C@@H](O[C@@H]2O[C@H](C[C@H](O)[C@H]3O[C@@H](n4ccc(=O)[nH]c4=O)[C@H](O)[C@@H]3O)[C@H](O)[C@H](O)[C@H]2NC(=O)/C=C/CCCCCCC(C)C)O[C@H](CO)[C@@H](O)[C@@H]1O` here?
Answer: 50%

Reference: ChEMBL document CHEMBL1145665, “Tunicamycins, streptovirudins, and corynetoxins, a special subclass of nucleoside antibiotics” (J Nat Prod, 1983)
